Experimental data as given in article PMC7993833, “EDP-938, a novel nucleoprotein inhibitor of respiratory syncytial virus, demonstrates potent antiviral activities in vitro and in a non-human primate model” (PLoS Pathogens, 2021).

Legend:
RSV-A2 = assay: RT-qPCR assay, RSV-A2 in HEp-2 cells; format: cell-based; details: human respiratory syncytial virus
Procedure: (§1) HEp-2, Vero, and BHK were seeded at 8,000 cells per well (cpw) in growth medium (Dulbecco’s Modified Eagle Medium (DMEM) with 1% GlutaMAX, 1% Penicillin/Streptomycin (P/S), 1% Non-Essential Amino Acids (NEAA), 10% Fetal Bovine Serum (FBS)) or (Minimum Essential Medium (MEM) with 10% FBS, 1% NEAA, 1% P/S) or (Eagle’s Minimum Essential Medium with L-Glutamine, with 10% FBS, 1% P/S) respectively. A549 seeded at 3,000 cpw in F-12K Kaighn’s Modification nutrient mixture with 10% FBS, 1% NEAA, 1% P/S. Cells seeded at time of infection in 96-well plates, final well volume 100μL. Compounds suspended in DMSO, serially diluted and added to wells at 0.5% final DMSO concentration. Viral stocks stabilized with 25% sucrose, previously titered using plaque assay, were added at desired MOI. Sucrose added to cells-only control wells to match percent added with virus. Unless otherwise noted, RSV-A strains were tested at 0.1 MOI and incubated for 5 days in a 37°C, 5% CO2 humidified incubator, and RSV-B at 0.5 MOI for 6 days. Cytopathic effect (CPE) determined using ATPlite (Perkin Elmer) measured with Envision luminometer. For RT-qPCR, RNA was extracted from whole well using Ambion RNAqueous-96 Automated Kit, and RT-qPCR run using Applied Biosystems TaqMan RNA-to-CT 1-Step Kit. […] All EC50s were calculated using the XLFit four-parameter logistic model 200 in Microsoft Excel.

RSV-B VR-955 [1] = assay: RT-qPCR assay, RSV-B VR-955 in HEp-2 cells; format: cell-based; details: human respiratory syncytial virus
Procedure: as §1

RSV-B VR-955 [2] = assay: CPE assay, RSV-B VR-955 in A549 cells; format: cell-based; details: human respiratory syncytial virus
Procedure: as §1

RSV-B VR-955 [3] = assay: RT-qPCR assay, RSV-B VR-955 in A549 cells; format: cell-based; details: human respiratory syncytial virus
Procedure: as §1

RSV-A Long [4] = assay: RT-qPCR assay, RSV-A Long in primary HBECs; format: cell-based; details: human respiratory syncytial virus, primary HBEC
RSV-A Long [5] = assay: RT-qPCR assay, RSV-A Long in primary neonatal lamb bronchial epithelial cells; format: cell-based; details: human respiratory syncytial virus, Epithelial cell
[6] = Cytotoxicity (ATPlite) in CHO cells; format: cell-based; details: Chinese hamster, read-out: half-maximal cytotoxic concentration (CC50)
Procedure: HEp-2, A549, and CHO cells were seeded at 3,000 cpw in their respective growth medium. CHO growth medium used was RPMI medium 1640 with 10% FBS, 1% P/S, 1% GlutaMAX. HEK-293 cells seeded at 10,000 cpw in DMEM growth medium. Undifferentiated HBECs were seeded in collagen-coated 96-well plates at 7,500 cpw in appropriate growth medium. Compound added and incubated for 3 days (4 days for HBECs) as described above. Plates read with ATPlite and CC50 calculated as EC50s as described above. SI = CC50/EC50 within a cell line.

RSV-A clinical isolates = assay: Susceptibility of USA-derived RSV-A clinical isolates; format: cell-based; details: human respiratory syncytial virus
Procedure: Serial dilutions of the compound were added to cells infected with RSV-A isolates at an MOI of 0.1 (except for isolate 629-9-2 at an MOI of 0.01) or RSV-B isolates at an MOI of 0.5 (expect for isolate 629-24/2007 at an MOI of 0.0044) and were treated for 5 or 6 days, respectively. […] This is consistent with the fact that the viral N protein, which is the putative target of the antiviral effect of EDP-938, is the most conserved RSV protein [11].
HEp-2, Vero, and BHK were seeded at 8,000 cells per well (cpw) in growth medium (Dulbecco’s Modified Eagle Medium (DMEM) with 1% GlutaMAX, 1% Penicillin/Streptomycin (P/S), 1% Non-Essential Amino Acids (NEAA), 10% Fetal Bovine Serum (FBS)) or (Minimum Essential Medium (MEM) with 10% FBS, 1% NEAA, 1% P/S) or (Eagle’s Minimum Essential Medium with L-Glutamine, with 10% FBS, 1% P/S) respectively. A549 seeded at 3,000 cpw in F-12K Kaighn’s Modification nutrient mixture with 10% FBS, 1% NEAA, 1% P/S. Cells seeded at time of infection in 96-well plates, final well volume 100μL. Compounds suspended in DMSO, serially diluted and added to wells at 0.5% final DMSO concentration. […] Cytopathic effect (CPE) determined using ATPlite (Perkin Elmer) measured with Envision luminometer. […] All EC50s were calculated using the XLFit four-parameter logistic model 200 in Microsoft Excel. […]

[7] = test system: RSV-B VR-955 EDP-938 resistant populations; assay: Susceptibility of EDP-938 resistant RSV-B VR-955 populations; format: cell-based, respiratory syncytial virus
RSV A2 = assay: RSV-infected African Green monkey model, viral load; format: in vivo, African Green monkeys (Chlorocebus)
Procedure: African Green monkeys (AGMs) are permissive for human RSV infection and support a relatively higher level of viral replication compared to cotton rats and BALB/c mice. It has been previously validated as a non-human primate model for assessing in vivo efficacy of potential RSV vaccines and antiviral drugs. To evaluate the activity of EDP-938 in the AGM model, 4 animals each were treated with 100 mg/kg BID with EDP-938, RSV-604, or vehicle control via oral gavage starting 24 hours prior to RSV challenge and continuing for an additional 5 days. Samples were collected through bronchoalveolar lavage (BAL) and nasopharyngeal (NP) swab at various time points to determine viral load. […] Viral load in the NP swab samples was also determined.
A study of EDP-938 and RSV-604 in the African Green monkey (AGM) animal model was performed by BIOQUAL, Inc (Rockville, Maryland). Methods were similar to those run in a study by Ispas et al.. Six (6) male and 6 female AGMs (Chlorocebus) of 4–5 kg were purchased from PrimGen (Hines, Illinois). Each animal was challenged with 2 x 10^5 PFU of RSV A2 viral inoculum (Virapur, San Diego, CA). Four animals (2 per sex) in each group were treated with EDP-938, RSV-604, or vehicle control (0.5% w/v methylcellulose). The animals were dosed via oral gavage twice daily (every 12 hours), starting 24 hours prior to RSV challenge, and then continuing for an additional 5 days (6 total days of dose administration). Bronchoalveolar lavage (BAL) samples and nasopharyngeal (NP) swabs were collected for viral load determination.

[8] = test system: RSV mRNA transcription and genome replication; assay: RSV minigenome system; format: cell-based, respiratory syncytial virus
[9] = 144 h, RSV-B VR-955 MOI 0.5, 6 days
[10] = 144 h, RSV-A Long MOI 0.1, 6 days

In the case of O=C1Nc2ccccc2C(c2ccccc2)=N[C@@H]1Nc1nnc(-c2ncc(C(F)(F)F)cc2N2CCOCC2)o1 [EDP-938], the EC50 (RSV-A2) is reported as 59 ± 18 nM, the EC90 (RSV-A2) is reported as 70 ± 30 nM and the EC50 (RSV-B VR-955 [1]; [9]) is reported as 110 ± 22 nM. For the same molecule, the EC90 (RSV-B VR-955 [1]; RSV-B VR-955) was 140 ± 24 nM, the EC50 (RSV-B VR-955 [2]; [9]) was 72 ± 9 nM and the EC90 (RSV-B VR-955 [2]; RSV-B VR-955) was 223 ± 90 nM. It also gave an EC50 (RSV-B VR-955 [3]) of 83 ± 38 nM, an EC90 (RSV-B VR-955 [3]) of 170 ± 53 nM and an EC50 (RSV-A Long [4]; [10]) of 21 ± 17 nM. For the same molecule, the EC90 (RSV-A Long [4]; RSV-A Long) was 29 ± 23 nM, the EC50 (RSV-A Long [5]; [10]) was over 800 nM and the EC90 (RSV-A Long [5]; RSV-A Long) was over 800 nM. For the same molecule, the CC50 at 3 days [6] was about 27000 nM, the EC50 (RSV-A clinical isolates) was 76 nM and the “EC50 Fold Change vs. WT” value ([7]; RSV-B VR-955 Population 1, N: M109K, L139Q (dual WT/mutant population)) was 42 fold. The “EC50 Fold Change vs. WT” value ([7]; RSV-B VR-955 Population 2, N: M109T) was 6.6 fold, the “EC50 Fold Change vs. WT” value ([7]; RSV-B VR-955 Wild-Type) was 1 fold and the “reduction in peak viral load” value (RSV A2; 100 mg/kg BID oral gavage) was ~ 4 log10. The “effect on RSV viral load vs vehicle control” value (RSV A2; 100 mg/kg BID oral gavage, BAL) was “completely suppressed viral replication”, the “viral load reduction in BAL” value (RSV A2; 100 mg/kg BID oral gavage, Day 5, to below limit of detection (100 copies/mL)) was 4 log10 and the “viral load reduction in NP swab” value (RSV A2; 100 mg/kg BID oral gavage, Day 7, to below limit of detection (100 copies/mL)) was 4 log10. For the same molecule, the “viral rebound after cessation of treatment” value (RSV A2; BAL fluid, above the limit of detection) was “no viral rebound was observed” and the “effect on mRNA transcription or genome replication” value [8] was “had no effect”.
